# Laboratory results: patent publication US20250019386A1, “PYRROLO[1,2-b]-2-PYRIDAZINONE COMPOUNDS AS 5-HT4 RECEPTOR AGONISTS” (SUVEN LIFE SCIENCES LIMITED, priority 2022, published 2025)
# Tests used:
# [1] = target: hERG tail currents in HEK293-hERG cells (Homo sapiens (Human), UniProt Q12809); experiment: hERG patch-clamp assay; assay type: cell-based; conditions: whole cell patch-clamp, tail current at -40 mV, read-out: half maximal inhibitory concentration of hERG tail currents (IC50)
# Procedure: The HEK293-hERG cells for patch-clamp assay were cultured in DMEM: Ham's F12 (1:1 ratio) with 10% fetal bovine serum containing 0.5 mg/ml of selective antibiotic, G-418 sulfate (Calbiochem) and 0.1% penicillin and streptomycin (Thermofisher, MA, USA) in T-75 flask. Cells were harvested at 70-80% confluency by washing with Hanks' Balanced Salt Solution lacking Mg^2+ and Ca^2+ ions and subsequent addition of accumax (2.5 mL) (Sigma Aldrich, MO, USA) and incubated the flask at 5% CO2 and 37° C. until cells start sliding of the surface. After cells have completely detached from the surface about 10 mL of complete media without selective antibiotic was added and pipetted to detach the cell clumps. Additional 7.5 mL of complete media was added to collect the residual cells in the flask and cell suspension was incubated at 5% CO2 and 37° C. for 30 min. […] The peak current is measured at −40 mV tail currents using Patchliner instrument. The I-V pulse protocol was pulsed every 10 s and online analysis were recorded by substituting the leak current from the peak current and IC50 values were calculated from IGOR PRO software (WaveMetrics, Inc. Portland, OR, USA).
# [2] = tested on: intestinal (jejunum) EMG activity; experiment: Intestinal myoelectrical activity in male Wistar rats; assay type: in vivo; conditions: p.o.
# Procedure: Method: The telemetry transmitter (F40-EET; DSI, MA, USA) was implanted subcutaneously in the rat and the spring electrodes were implanted into the walls of intestine (jejunum) under isoflurane anesthesia. After two weeks of surgical recovery, animals were fasted for 14 h and transferred to recording cages. The transmitter was switched on using magnetic switch and baseline intestinal EMG activity was recorded for 3 h. Rats were treated with vehicle, test compound of example 2 (10 or 30 mg/kg, p.o.) or positive control, prucalopride (10 mg/kg, p.o.) was administered and EMG signals were recorded for additional 3 h using Ponemah software (DSI, MA, USA). Animals were given access to only water during study. The recorded EMG signal was filtered using 20-50 Hz band filter and spiking activity was measured in bouts of 30 min using NeuroScore software (DSI, MA, USA).
# [3] = tested on: gastric emptying; experiment: Effect on gastric emptying in Beagle dogs (clonidine model of gastroparesis); assay type: in vivo; conditions: 3 and 10 mg/kg oral
# Procedure: Six beagle dogs were used for the study in a crossover manner such that all 6 dogs received all the treatments. Each dog was placed in an individual cage after overnight fasting and water removed. To provide a model of gastroparesis, clonidine (α2 adrenergic agonist) at a dose of 10 μg/kg was injected subcutaneously 30 min before test meal administration.
# Dogs were orally administered test compound of example 2 at 1, 3 and 10 mg/kg or vehicle or cisapride at 10 mg/kg immediately before the administration of clonidine. The test meal (10 mL/kg), made up of commercially available semi-solid food with 10 mg/kg of acetaminophen (APAP), was provided 30 min after clonidine injection. Blood samples were collected from cephalic vein at 0, 0.25, 0.5, 0.75, 1.0, 1.25, 1.5 & 2.0 h after test meal administration and then plasma was separated by centrifugation. Plasma concentrations of APAP were determined by in-house methods using LC-MS/MS.
# [4] = tested on: colonic transit; experiment: Effect on colonic transit in Swiss mice; assay type: in vivo, Male Swiss mice; conditions: 1 and 3 mg/kg, p.o., carmine dye, 3 h after dye
# Procedure: Male Swiss mice of body weight ˜20-30 g were fasted for 16 h with free access to water prior to the experiment. Mice were administrated compound of example 2 or vehicle, 30 min after administration of 0.5 ml of carmine dye solution. Mice were sacrificed 3 h after dye administration and the distance traveled by the dye from proximal colon was measured. Colonic transit was expressed as % colonic transit=100×(length of colon in which carmine moved/total length of colon).
# [5] = Rat brain penetration study; assay type: in vivo; conditions: brain/plasma, oral (gavage) 3 mg/kg, male Wistar rats, brain concentrations below LLOQ taken as zero, read-out: Single dose Brain Penetration (Cb/Cp)
# Procedure: Male Wistar rats (225±25 g) were used as experimental animals. Three animals were housed in each cage. Animals were given water and food ad libitum throughout the experiment and maintained on a 12 h light/dark cycle.
# Brain penetration was determined in discrete manner in rats. One day prior to dosing day, male Wistar rats were acclimatized. After acclimatization, the rats were grouped according to their weight. In each group, 3 animals were kept in individual cages and allowed free access to food and water. At each time point (0.5, 1, and 2 h) n=3 animals were used.
# The compounds of formula (I) were suitably preformulated and administered orally at (free base equivalent) 3 mg/kg. Blood samples were collected via, cardiac puncture by using isoflurane anesthesia. The animals were sacrificed to collect brain tissue. Plasma was separated and brain samples were homogenized and stored frozen at −20° C. until analysis.
# The concentrations of the compounds of formula (I) were quantified in plasma and brain homogenate by qualified LC-MS/MS method using a suitable extraction technique. The compounds of formula (I) were quantified in the calibration range of 1-2000 ng/mL in plasma and brain homogenate. Study samples were analyzed using calibration samples in the batch and quality control samples spread across the batch. Extent of brain-plasma ratio was calculated (Cb/Cp). Brain concentrations were found below LLOQ and a value of zero was considered for calculation purposes.
# Chain of hERG tail currents in HEK293-hERG cells (Q12809 whole entry): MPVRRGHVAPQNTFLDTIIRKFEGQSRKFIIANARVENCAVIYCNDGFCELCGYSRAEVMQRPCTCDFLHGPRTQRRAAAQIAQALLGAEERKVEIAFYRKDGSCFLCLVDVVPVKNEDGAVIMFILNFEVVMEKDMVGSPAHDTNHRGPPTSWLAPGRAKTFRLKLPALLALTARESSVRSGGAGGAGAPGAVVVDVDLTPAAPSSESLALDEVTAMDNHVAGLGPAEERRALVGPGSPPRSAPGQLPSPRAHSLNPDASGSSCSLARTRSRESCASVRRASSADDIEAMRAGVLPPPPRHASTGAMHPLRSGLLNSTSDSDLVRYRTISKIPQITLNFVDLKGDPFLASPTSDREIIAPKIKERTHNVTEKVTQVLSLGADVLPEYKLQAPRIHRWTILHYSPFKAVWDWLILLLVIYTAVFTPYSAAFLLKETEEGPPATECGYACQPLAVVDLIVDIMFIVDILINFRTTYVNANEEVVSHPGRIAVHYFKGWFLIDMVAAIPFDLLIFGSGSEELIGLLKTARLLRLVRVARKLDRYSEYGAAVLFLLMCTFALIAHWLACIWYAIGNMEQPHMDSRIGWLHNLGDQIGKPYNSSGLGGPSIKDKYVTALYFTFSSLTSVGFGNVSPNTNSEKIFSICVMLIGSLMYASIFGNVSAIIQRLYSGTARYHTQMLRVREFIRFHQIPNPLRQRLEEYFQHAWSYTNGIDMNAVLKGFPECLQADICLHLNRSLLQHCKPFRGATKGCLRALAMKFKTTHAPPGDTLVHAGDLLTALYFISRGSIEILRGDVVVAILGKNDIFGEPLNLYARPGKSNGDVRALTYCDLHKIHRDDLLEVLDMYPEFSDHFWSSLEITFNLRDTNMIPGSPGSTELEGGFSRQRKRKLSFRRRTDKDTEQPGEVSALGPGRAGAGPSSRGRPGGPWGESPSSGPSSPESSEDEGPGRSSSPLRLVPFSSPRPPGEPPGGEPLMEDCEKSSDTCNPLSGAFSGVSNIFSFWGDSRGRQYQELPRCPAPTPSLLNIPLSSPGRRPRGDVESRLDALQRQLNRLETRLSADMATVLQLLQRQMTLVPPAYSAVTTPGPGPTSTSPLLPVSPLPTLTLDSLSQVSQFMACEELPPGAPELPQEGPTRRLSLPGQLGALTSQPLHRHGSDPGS
structure (smiles),measurement,setting,value
"CC(C)n1c(=O)c(C(=O)NC2CC3CCC(C2)N3C[C@@H](O)CN(C)S(C)(=O)=O)cc2cccn21.O=C(O)C(O)C(O)C(=O)O (single isomer, unassigned) [Example 2]",IC50,[1],> 10 µM
same,increase in myoelectric activity,"[2]; 30 mg/kg, jejunum EMG spiking",97±31%
same,myoelectric activity,[2]; 10 or 30 mg/kg,dose-dependent increase in myoelectric activity
same,gastric emptying,"[3]; clonidine-treated (10 μg/kg s.c.) beagle dogs, plasma APAP",enhanced the gastric emptying in dose dependent manner
same,gastric motor activity,[3]; clonidine-treated beagle dogs,increased gastric motor activity
same,colonic transit,[4],increased the colonic transit
same,Kp,[5],0
